Test results published in PubChem BioAssay (NCI).
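Dose response: 5 concentrations. Exposure: 48 h. Format: 96-well plates. Endpoint: linear interpolation; highest concentration if not reached. GI50 marks 50% less growth. TGI denotes the concentration required for complete inhibition of growth.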

Columns and labels:
Assay in all cases: NCI anticancer screen, dose series, 48 h
786-0 renal = system: 786-0 renal
A549 NSCLC = system: A549 NSCLC
ACHN renal = system: ACHN renal
BT-549 breast = system: BT-549 breast
CAKI-1 renal = system: CAKI-1 renal
COLO 205 colon = system: COLO 205 colon
DU-145 prostate = system: DU-145 prostate
EKVX NSCLC = system: EKVX NSCLC
HCT-116 colon = system: HCT-116 colon
HCT-15 colon = system: HCT-15 colon
HL-60(TB) leukemia = system: HL-60(TB) leukemia
HOP-62 NSCLC = system: HOP-62 NSCLC
HOP-92 NSCLC = system: HOP-92 NSCLC
HS 578T breast = system: HS 578T breast
HT29 colon = system: HT29 colon
IGROV1 ovarian = system: IGROV1 ovarian
KM12 colon = system: KM12 colon
LOX IMVI melanoma = system: LOX IMVI melanoma
M14 melanoma = system: M14 melanoma
MALME-3M melanoma = system: MALME-3M melanoma
MCF7 breast = system: MCF7 breast
MDA-MB-231 breast = system: MDA-MB-231 breast
MDA-MB-435 = system: MDA-MB-435
MOLT-4 leukemia = system: MOLT-4 leukemia
NCI-H226 lung = system: NCI-H226 lung
NCI-H522 lung = system: NCI-H522 lung
OVCAR-3 ovarian = system: OVCAR-3 ovarian
OVCAR-4 ovarian = system: OVCAR-4 ovarian
OVCAR-5 ovarian = system: OVCAR-5 ovarian
OVCAR-8 ovarian = system: OVCAR-8 ovarian
PC-3 prostate = system: PC-3 prostate
RPMI-8226 leukemia = system: RPMI-8226 leukemia
RXF 393 renal = system: RXF 393 renal
SF-268 CNS = system: SF-268 CNS
SF-295 CNS = system: SF-295 CNS
SF-539 CNS = system: SF-539 CNS
SK-MEL-2 melanoma = system: SK-MEL-2 melanoma
SK-MEL-28 melanoma = system: SK-MEL-28 melanoma
SK-MEL-5 melanoma = system: SK-MEL-5 melanoma
SK-OV-3 ovarian = system: SK-OV-3 ovarian
SN12C renal = system: SN12C renal
SNB-19 CNS = system: SNB-19 CNS
SNB-75 CNS = system: SNB-75 CNS
SR leukemia = system: SR leukemia
TK-10 renal = system: TK-10 renal
U251 CNS = system: U251 CNS
UACC-257 melanoma = system: UACC-257 melanoma
UO-31 renal = system: UO-31 renal
A498 renal = system: A498 renal
CCRF-CEM leukemia = system: CCRF-CEM leukemia
HCC-2998 colon = system: HCC-2998 colon
K-562 leukemia = system: K-562 leukemia
NCI-H23 lung = system: NCI-H23 lung
NCI-H460 lung = system: NCI-H460 lung
NCI/ADR-RES ovarian = system: NCI/ADR-RES ovarian
SW-620 colon = system: SW-620 colon
T-47D breast = system: T-47D breast
UACC-62 melanoma = system: UACC-62 melanoma

OC1CCN(CCCOc2c3ccc(Cl)cc3nc3c2oc2ccccc23)CC1
GI50 (786-0 renal): 1300 nM
TGI (786-0 renal): 4860 nM
GI50 (A549 NSCLC): 1230 nM
TGI (A549 NSCLC): 23200 nM
GI50 (ACHN renal): 491 nM
TGI (ACHN renal): 11700 nM
GI50 (BT-549 breast): 2490 nM
TGI (BT-549 breast): 7240 nM
GI50 (CAKI-1 renal): 525 nM
TGI (CAKI-1 renal): 3350 nM
GI50 (COLO 205 colon): 661 nM
TGI (COLO 205 colon): 2150 nM
GI50 (DU-145 prostate): 1570 nM
TGI (DU-145 prostate): > 100000 nM
GI50 (EKVX NSCLC): 2390 nM
TGI (EKVX NSCLC): 8460 nM
GI50 (HCT-116 colon): 390 nM
TGI (HCT-116 colon): 2110 nM
GI50 (HCT-15 colon): 780 nM
TGI (HCT-15 colon): > 100000 nM
GI50 (HL-60(TB) leukemia): 1580 nM
TGI (HL-60(TB) leukemia): 4800 nM
GI50 (HOP-62 NSCLC): 1860 nM
TGI (HOP-62 NSCLC): 11400 nM
GI50 (HOP-92 NSCLC): 1040 nM
TGI (HOP-92 NSCLC): 3790 nM
GI50 (HS 578T breast): 2170 nM
TGI (HS 578T breast): 8010 nM
GI50 (HT29 colon): 610 nM
TGI (HT29 colon): 2270 nM
GI50 (IGROV1 ovarian): 1970 nM
TGI (IGROV1 ovarian): 12500 nM
GI50 (KM12 colon): 1480 nM
TGI (KM12 colon): > 100000 nM
GI50 (LOX IMVI melanoma): 343 nM
TGI (LOX IMVI melanoma): 1450 nM
GI50 (M14 melanoma): 1340 nM
TGI (M14 melanoma): 3090 nM
GI50 (MALME-3M melanoma): 1490 nM
TGI (MALME-3M melanoma): 3100 nM
GI50 (MCF7 breast): 968 nM
TGI (MCF7 breast): 4300 nM
GI50 (MDA-MB-231 breast): 1570 nM
TGI (MDA-MB-231 breast): 6130 nM
GI50 (MDA-MB-435): 1230 nM
TGI (MDA-MB-435): 2570 nM
GI50 (MOLT-4 leukemia): 391 nM
TGI (MOLT-4 leukemia): 3200 nM
GI50 (NCI-H226 lung): 1990 nM
TGI (NCI-H226 lung): 5630 nM
GI50 (NCI-H522 lung): 1280 nM
TGI (NCI-H522 lung): 3200 nM
GI50 (OVCAR-3 ovarian): 2200 nM
TGI (OVCAR-3 ovarian): > 100000 nM
GI50 (OVCAR-4 ovarian): 1390 nM
TGI (OVCAR-4 ovarian): 5090 nM
GI50 (OVCAR-5 ovarian): 1970 nM
TGI (OVCAR-5 ovarian): 6850 nM
GI50 (OVCAR-8 ovarian): 1130 nM
TGI (OVCAR-8 ovarian): 13500 nM
GI50 (PC-3 prostate): 1490 nM
TGI (PC-3 prostate): 4070 nM
GI50 (RPMI-8226 leukemia): 1590 nM
TGI (RPMI-8226 leukemia): 4800 nM
GI50 (RXF 393 renal): 1280 nM
TGI (RXF 393 renal): 3360 nM
GI50 (SF-268 CNS): 1490 nM
TGI (SF-268 CNS): > 100000 nM
GI50 (SF-295 CNS): 2080 nM
TGI (SF-295 CNS): 11800 nM
GI50 (SF-539 CNS): 1320 nM
TGI (SF-539 CNS): 2640 nM
GI50 (SK-MEL-2 melanoma): 1760 nM
TGI (SK-MEL-2 melanoma): 3340 nM
GI50 (SK-MEL-28 melanoma): 1690 nM
TGI (SK-MEL-28 melanoma): 3170 nM
GI50 (SK-MEL-5 melanoma): 1790 nM
TGI (SK-MEL-5 melanoma): 3250 nM
GI50 (SK-OV-3 ovarian): 2420 nM
TGI (SK-OV-3 ovarian): 10500 nM
GI50 (SN12C renal): 839 nM
TGI (SN12C renal): > 100000 nM
GI50 (SNB-19 CNS): 2280 nM
TGI (SNB-19 CNS): 32600 nM
GI50 (SNB-75 CNS): 1330 nM
TGI (SNB-75 CNS): 2700 nM
GI50 (SR leukemia): 458 nM
TGI (SR leukemia): 3230 nM
GI50 (TK-10 renal): 2780 nM
TGI (TK-10 renal): 7650 nM
GI50 (U251 CNS): 1090 nM
TGI (U251 CNS): 7400 nM
GI50 (UACC-257 melanoma): 1720 nM
TGI (UACC-257 melanoma): 3490 nM
GI50 (UO-31 renal): 517 nM
TGI (UO-31 renal): 3100 nM

CCCn1cnc2c(c1=N)C(c1ccc(Cl)cc1)c1sc3c(C)cccc3c1O2 (centres undefined)
GI50 (786-0 renal): 558 nM
TGI (786-0 renal): 11200 nM
GI50 (A498 renal): 304 nM
TGI (A498 renal): 1170 nM
GI50 (A549 NSCLC): 530 nM
TGI (A549 NSCLC): 8740 nM
GI50 (ACHN renal): 791 nM
TGI (ACHN renal): 14900 nM
GI50 (BT-549 breast): 1490 nM
TGI (BT-549 breast): 6890 nM
GI50 (CAKI-1 renal): 192 nM
TGI (CAKI-1 renal): 14900 nM
GI50 (CCRF-CEM leukemia): 380 nM
GI50 (COLO 205 colon): 386 nM
TGI (COLO 205 colon): 1900 nM
GI50 (DU-145 prostate): 444 nM
TGI (DU-145 prostate): 5440 nM
GI50 (EKVX NSCLC): 572 nM
TGI (EKVX NSCLC): 19400 nM
GI50 (HCC-2998 colon): 732 nM
TGI (HCC-2998 colon): 6100 nM
GI50 (HCT-116 colon): 410 nM
TGI (HCT-116 colon): 2150 nM
GI50 (HCT-15 colon): 409 nM
TGI (HCT-15 colon): 4930 nM
GI50 (HL-60(TB) leukemia): 346 nM
TGI (HL-60(TB) leukemia): 1690 nM
GI50 (HOP-62 NSCLC): 477 nM
TGI (HOP-62 NSCLC): 10700 nM
GI50 (HOP-92 NSCLC): 1980 nM
TGI (HOP-92 NSCLC): 14500 nM
GI50 (HS 578T breast): 352 nM
TGI (HS 578T breast): 5470 nM
GI50 (HT29 colon): 402 nM
TGI (HT29 colon): 5110 nM
GI50 (IGROV1 ovarian): 464 nM
TGI (IGROV1 ovarian): 11800 nM
GI50 (K-562 leukemia): 283 nM
TGI (K-562 leukemia): 4200 nM
GI50 (KM12 colon): 443 nM
TGI (KM12 colon): 11200 nM
GI50 (LOX IMVI melanoma): 701 nM
TGI (LOX IMVI melanoma): 6730 nM
GI50 (M14 melanoma): 314 nM
TGI (M14 melanoma): 3860 nM
GI50 (MALME-3M melanoma): 10200 nM
TGI (MALME-3M melanoma): 25100 nM
GI50 (MCF7 breast): 339 nM
TGI (MCF7 breast): 10800 nM
GI50 (MDA-MB-231 breast): 774 nM
TGI (MDA-MB-231 breast): 13200 nM
GI50 (MOLT-4 leukemia): 498 nM
TGI (MOLT-4 leukemia): 7700 nM
GI50 (NCI-H226 lung): 431 nM
TGI (NCI-H226 lung): 4080 nM
GI50 (NCI-H23 lung): 587 nM
TGI (NCI-H23 lung): 13100 nM
GI50 (NCI-H460 lung): 362 nM
TGI (NCI-H460 lung): 1900 nM
GI50 (NCI-H522 lung): 387 nM
TGI (NCI-H522 lung): 5700 nM
GI50 (NCI/ADR-RES ovarian): 316 nM
TGI (NCI/ADR-RES ovarian): 2440 nM
GI50 (OVCAR-3 ovarian): 283 nM
TGI (OVCAR-3 ovarian): 1050 nM
GI50 (OVCAR-4 ovarian): 1570 nM
TGI (OVCAR-4 ovarian): 17800 nM
GI50 (OVCAR-5 ovarian): 674 nM
TGI (OVCAR-5 ovarian): 13100 nM
GI50 (OVCAR-8 ovarian): 522 nM
TGI (OVCAR-8 ovarian): 11400 nM
GI50 (PC-3 prostate): 454 nM
TGI (PC-3 prostate): 14300 nM
GI50 (RPMI-8226 leukemia): 381 nM
TGI (RPMI-8226 leukemia): 3720 nM
GI50 (RXF 393 renal): 217 nM
TGI (RXF 393 renal): 600 nM
GI50 (SF-268 CNS): 953 nM
TGI (SF-268 CNS): 11100 nM
GI50 (SF-295 CNS): 374 nM
TGI (SF-295 CNS): 10500 nM
GI50 (SF-539 CNS): 316 nM
TGI (SF-539 CNS): 1110 nM
GI50 (SK-MEL-2 melanoma): 726 nM
TGI (SK-MEL-2 melanoma): 16000 nM
GI50 (SK-MEL-28 melanoma): 2340 nM
TGI (SK-MEL-28 melanoma): 21900 nM
GI50 (SK-MEL-5 melanoma): 430 nM
TGI (SK-MEL-5 melanoma): 3460 nM
GI50 (SK-OV-3 ovarian): 680 nM
TGI (SK-OV-3 ovarian): 19700 nM
GI50 (SN12C renal): 879 nM
TGI (SN12C renal): 13300 nM
GI50 (SNB-19 CNS): 527 nM
TGI (SNB-19 CNS): 17600 nM
GI50 (SNB-75 CNS): 237 nM
TGI (SNB-75 CNS): 2660 nM
GI50 (SR leukemia): 377 nM
TGI (SR leukemia): 5990 nM
GI50 (SW-620 colon): 402 nM
TGI (SW-620 colon): 11700 nM
GI50 (T-47D breast): 522 nM
TGI (T-47D breast): 24300 nM
GI50 (TK-10 renal): 5690 nM
TGI (TK-10 renal): 24000 nM
GI50 (U251 CNS): 432 nM
TGI (U251 CNS): 11300 nM
GI50 (UACC-257 melanoma): 8900 nM
TGI (UACC-257 melanoma): 29000 nM
GI50 (UACC-62 melanoma): 490 nM
TGI (UACC-62 melanoma): 15000 nM
GI50 (UO-31 renal): 612 nM
TGI (UO-31 renal): 18200 nM
